Results from patent US10392348B2, “2-oxo-3,4-dihydroquinoline compounds as plant growth regulators” (Syngenta Participations AG, priority 2015, dated 2019).
Read-outs that look alike come from different tables or passages of the source.

Tests used:
[1] = tested on: corn plants (variety NK OCTET); experiment: Reduced plant water use in corn (foliar spray, repeated weighing of pots); format: in vivo; conditions: Zea mays, corn plants sprayed at 500 μM, average of 6 pots
Procedure: Compounds were tested for their effect on reducing plant water use as follows. The compounds were applied by foliar spray to 12 day old corn plants (variety NK OCTET) grown in controlled environment plant growth chambers. All compounds were applied using an emulsifiable concentrate (EC) formulation that was diluted to the desired concentrations with water containing 0.4% of the adjuvant rape seed methyl ester. Plant water use during the day was assessed by repeated weighing of the pots in which the plants were grown before and after application of the compounds at the indicated times (expressed in days after application (DAA)). The water use data before application was used to correct any differences in water use arising due to non-treatment effects (e.g. due to differences in plant size). The untransformed water use values were subjected to an analysis of covariance, fitting the effect of treatment and using the baseline water use 1 day before application as a covariate. Application of the chemicals (0 DAA) takes place approximately between 08:00 and 09:30 a.m. WU is measured within day time (chamber light is on 06:00 to 20:00) at these timepoints: 0 DAA a.m. (10:30-12:50), 0 DAA p.m. (14:00-19:50), 1 DAA a.m. (07:30-12:50), 1 DAA p.m. (14:00-19:50), 2 DAA a.m. (07:30-12:50) and 2 DAA p.m. (14:00-19:50). The cumulative total WU (0-2.5 DAA) is calculated by summing the WU data mentioned above.

[2] = tested on: soybean plants (variety S20-G7); experiment: Reduced plant water use in soybean (foliar spray, repeated weighing of pots); format: in vivo; conditions: Glycine max, foliar, Table B1, sprayed at 500 μM, vs negative control
Procedure: Compounds were tested for their effect on reducing plant water use as follows. Each compound was dissolved in a blank emulsifiable concentrate (EC) formulation that was then diluted to the desired concentration with water containing additional surfactant (EXTRAVON 1 g/20 L). The compounds were applied by foliar spray to 12 day old soybean plants (variety S20-G7) grown in controlled environment plant growth chambers. Plant water use during the day was assessed by repeated weighing of the pots in which the plants were grown before and after application of the compounds at the indicated times (expressed in days after application (DAA)). The water use data before application was used to correct any differences in water use arising due to non-treatment effects (e.g. due to differences in plant size). The untransformed water use values were subjected to an analysis of covariance, fitting the effect of treatment and using the baseline water use 1 day before application as a covariate.
The results are expressed compared to negative control treatment (diluted EC formulation without active ingredient but with EXTRAVON 1 g/20 L).
Application of the chemicals (0 DAA) takes place approximately between 08:00 and 09:30 a.m. WU is measured within day time (chamber light is on 06:00 to 20:00) at these timepoints: 0 DAA a.m. (10:30-12:50), 0 DAA p.m. (14:00-19:50), 1 DAA a.m. (7:30-12:50), 1 DAA p.m. (14:00-19:50), 2 DAA a.m. (07:30-12:50) and 2 DAA p.m. (14:00-19:50). The cumulative total WU (0-2.5 DAA) is calculated by summing the WU data mentioned above.

[3] = 0 h, water use during day time vs negative control, 0 DAA a.m. (10:30-12:50), read-out: % WU 0 DAA AM
[4] = 0 h, water use during day time vs negative control, 0 DAA p.m. (14:00-19:50), read-out: % WU 0DAA PM
[5] = 24 h, water use during day time vs negative control, 1 DAA a.m. (07:30-12:50), read-out: % WU 1DAA AM
[6] = 24 h, water use during day time vs negative control, 1 DAA p.m. (14:00-19:50), read-out: % WU 1DAA PM
[7] = 48 h, water use during day time vs negative control, 2 DAA a.m. (07:30-12:50), read-out: % WU 2 DAA AM
[8] = 48 h, water use during day time vs negative control, 2 DAA p.m. (14:00-19:50), read-out: % WU 2 DAA PM
[9] = 60 h, cumulative total water use 0-2.5 DAA (sum of the time points) vs negative control, read-out: % WU Total 0 to 2.5 DAA
[10] = 0 h, 0 DAA a.m. (10:30-12:50), read-out: % WU 0 DAA AM
[11] = 24 h, 1 DAA a.m. (7:30-12:50), read-out: % WU 1DAA AM
[12] = 24 h, 1 DAA p.m. (14:00-19:50), read-out: % WU 1DAA PM
[13] = 48 h, 2 DAA a.m. (07:30-12:50), read-out: % WU 2 DAA AM
[14] = 48 h, 2 DAA p.m. (14:00-19:50), read-out: % WU 2 DAA PM
[15] = 60 h, cumulative total WU (0-2.5 DAA), read-out: % WU Total 0 to 2.5 DAA

melting point [°C] | SMILES | change in vivo at 500 µM [1, 3] [%] | change in vivo at 500 µM [1, 4] [%] | change in vivo at 500 µM [1, 5] [%] | change in vivo at 500 µM [1, 6] [%] | change in vivo at 500 µM [1, 7] [%] | change in vivo at 500 µM [1, 8] [%] | change in vivo at 500 µM [1, 9] [%] | change in vivo at 500 µM [2, 10] [%] | change in vivo at 500 µM [2, 11] [%] | change in vivo at 500 µM [2, 12] [%] | change in vivo at 500 µM [2, 13] [%] | change in vivo at 500 µM [2, 14] [%] | change in vivo at 500 µM [2, 15] [%]
206 to 207 | CCN1C(=O)CCc2cc(CNS(=O)(=O)c3ccccc3Br)ccc21 [Compound 2.017, 2-bromo-N-[(1-ethyl-2-oxo-3,4-dihydroquinolin-6-yl)methyl]benzenesulfonamide] |  |  |  |  |  |  |  |  |  |  |  |  | 
119 to 124 | CCN1C(=O)CCc2cc(CNS(=O)(=O)/C=C/c3ccc(Br)cc3)ccc21 [Compound 2.052, (E)-2-(4-bromophenyl)-N-[(1-ethyl-2-oxo-3,4-dihydroquinolin-6-yl)methyl]ethenesulfonamide] |  |  |  |  |  |  |  |  |  |  |  |  | 
 | C=CCS(=O)(=O)NCc1ccc2c(c1)CCC(=O)N2CCC [Compound 3.071, N-[(2-oxo-1-propyl-3,4-dihydroquinolin-6-yl)methyl]prop-2-ene-1-sulfonamide] | -11.2 | -6.5 | -4.5 | -4.7 | -3.5 | -2.4 | -4.9 |  |  |  |  |  | 
 | CCCN1C(=O)CCc2cc(C3(NS(=O)(=O)c4ccc(F)cc4)CC3)ccc21 [Compound 15.009, 4-fluoro-N-[1-(2-oxo-1-propyl-3,4-dihydroquinolin-6-yl)cyclopropyl]benzenesulfonamide] | -10.7 | -7.8 | -8.7 | -5.8 | -5.4 | -5.7 | -7.1 |  |  |  |  |  | 
 | CCCN1C(=O)CCc2cc(C3(NS(=O)(=O)c4ccc(F)cc4F)CC3)ccc21 [Compound 15.006, 2,4-difluoro-N-[1-(2-oxo-1-propyl-3,4-dihydroquinolin-6-yl)cyclopropyl]benzenesulfonamide] | -10.2 | -3 | -1.4 | 0.1 | 1.7 | 1.1 | -1.2 | -32.6 | -23.6 | -24.4 | -17 | -17.8 | -23.8
 | CCN1C(=O)CC(C)c2cc(CNS(=O)(=O)c3ccccc3)ccc21 (stereo not drawn) [Compound 20.001, N-[(1-ethyl-4-methyl-2-oxo-3,4-dihydroquinolin-6-yl)methyl]benzenesulfonamide] | -21.7 | -18.3 | -19.2 | -10.3 | -8.1 | -5.5 | -12.9 | -50.1 | -58.5 | -55.2 | -55.8 | -50.5 | -54.4
 | CCCN1C(=O)CCc2cc(CNS(=O)(=O)/C=C/c3ccccc3F)ccc21 [Compound 3.056, (E)-2-(2-fluorophenyl)-N-[(2-oxo-1-propyl-3,4-dihydroquinolin-6-yl)methyl]ethenesulfonamide] | -8.4 | -2.7 | -5.6 | -4.4 | -4.7 | -3.2 | -4.6 |  |  |  |  |  | 
 | CCCN1C(=O)CCc2cc(CNS(=O)(=O)CCC)ccc21 [Compound 3.062, N-[(2-oxo-1-propyl-3,4-dihydroquinolin-6-yl)methyl]propane-1-sulfonamide] | -17.8 | -13 | -13 | -9.8 | -8.1 | -6.3 | -10.5 |  |  |  |  |  | 
 | CCCN1C(=O)CCc2cc(CNS(=O)(=O)CCCC(F)(F)F)ccc21 [Compound 3.020, 4,4,4-trifluoro-N-[(2-oxo-1-propyl-3,4-dihydroquinolin-6-yl)methyl]butane-1-sulfonamide] | -19.2 | -13.7 | -14.8 | -12.1 | -11.5 | -8.5 | -12.7 | -19.3 | -10.1 | -5.5 | -7.4 | -4.2 | -8.5
 | C/C=C/CS(=O)(=O)NCc1ccc2c(c1)CCC(=O)N2CCC [Compound 3.066, (E)-N-[(2-oxo-1-propyl-3,4-dihydroquinolin-6-yl)methyl]but-2-ene-1-sulfonamide] | -10.8 | -7.1 | -7.1 | -6.8 | -4.7 | -5.5 | -6.4 |  |  |  |  |  | 
 | CCN1C(=O)CC(C)c2cc(CNS(=O)(=O)c3ccc(F)cc3F)ccc21 (stereo not drawn) [Compound 20.006, N-[(1-ethyl-4-methyl-2-oxo-3,4-dihydroquinolin-6-yl)methyl]-2,4-difluoro-benzenesulfonamide] | -15.5 | -14.5 | -13.2 | -7 | -5.7 | -4.3 | -9.4 |  |  |  |  |  | 
 | O=C1CCc2cc(CNS(=O)(=O)c3ccccc3)ccc2N1CC1CC1 [Compound 10.001, N-[[1-(cyclopropylmethyl)-2-oxo-3,4-dihydroquinolin-6-yl]methyl]benzenesulfonamide] |  |  |  |  |  |  |  | -25.2 | -23.8 | -22.7 | -14.9 | -14.7 | -20.8
 | CCCN1C(=O)CCc2cc(C3(NS(=O)(=O)c4ccccc4)CC3)ccc21 [Compound 15.001, N-[1-(2-oxo-1-propyl-3,4-dihydroquinolin-6-yl)cyclopropyl]benzenesulfonamide] | -8.2 | -6.5 | -6.5 | -3.5 | -2.8 | -1.8 | -4.3 | -27.4 | -14.9 | -13.9 | -9.5 | -7.2 | -15.1
